Laboratory results published in paper PMC3019225, “Striatal Pre- and Postsynaptic Profile of Adenosine A2A Receptor Antagonists” (PLoS ONE, 2011).

Columns and labels:
[1] = system: striatal glutamate release induced by cortical electrical stimulation; test: In vivo microdialysis with cortical electrical stimulation; set-up: species or system rat; conditions: 1 mg/kg i.p.
Method: (§1) Male Sprague-Dawley rats (Charles River Laboratories, Wilmington, MA) weighting between 300–350 g were used in these experiments. Rats were housed 2 per cage and they maintained at a temperature of 22±2°C on a regular 12-h light–dark cycle. Food and water were available ad libitum.
Rats were anesthetized with 3 ml/kg of Equithesin (4.44 g of chloral hydrate, 0.972 g of Na pentobarbital, 2.124 g of MgSO4, 44.4 ml of propylene glycol, 12 ml of ethanol and distilled H2O up to 100 ml of final solution; NIDA Pharmacy, Baltimore, MD) and implanted unilaterally with bipolar stainless steel electrodes, 0.15 mm in diameter (Plastics One, Roanoke, VA), into the orofacial area of the lateral agranular motor cortex (3 mm anterior, 3 and 4 mm lateral, and 4.2 mm below bregma). The electrodes and a head holder (connected to a swivel during stimulation) were fixed on the skull with stainless steel screws and dental acrylic resin. […]
The experiments were performed on freely moving rats 24 h after probe implantation. […] Glutamate content was measured by reverse-phase HPLC coupled to a flourimetric detector (Shimadzu Inc., Tokio, Japan). Glutamate values were transformed as percentage of the mean of the three values before the drug or vehicle injection and transformed values were statistically analyzed.

[2] = system: rats; test: Motor output induced by cortical electrical stimulation (EMG recording, power correlation coefficient PCC); assay type: in vivo, rat; conditions: for Dose significantly reducing PCC: i.p., PCC 40 min after administration
Method: as §1
(§2) All drugs but MSX-3 (Sigma-Aldrich, St. Louis, MI) were provided by CHDI Foundation Inc. (Los Angeles, CA, US). SCH-420814 was administered subcutaneously (s.c.) at 1 ml/kg and the other drugs were administered via intraperitonal (i.p.) injection at volume of 2 ml/kg.
Rats were anesthetized with 3 ml/kg of Equithesin (4.44 g of chloral hydrate, 0.972 g of Na pentobarbital, 2.124 g of MgSO4, 44.4 ml of propylene glycol, 12 ml of ethanol and distilled H2O up to 100 ml of final solution; NIDA Pharmacy, Baltimore, MD) and implanted unilaterally with bipolar stainless steel electrodes, 0.15 mm in diameter (Plastics One, Roanoke, VA), into the orofacial area of the lateral agranular motor cortex (3 mm anterior, 3 and 4 mm lateral, and 4.2 mm below bregma). The electrodes and a head holder (connected to a swivel during stimulation) were fixed on the skull with stainless steel screws and dental acrylic resin. For the experiments with electromyographic (EMG) recording, electrodes were also implanted in mastication muscles (during the same surgical procedure). Two 5 mm-long incisions were made in the skin on the upper and lower jaw areas to expose the masseter and the lateral pterygoid muscles. […] The bare tips of the electrodes were then held in contact with the masseter and the lateral pterygoid muscles and the skin was closed with surgical staples. The other end of the recording electrodes was encased in a molded plastic pedestal with a round threaded post which was attached to an electrical swivel and then to a differential amplifier (Grass LP511, Grass Instruments, Warwick, RI). The pedestal was secured to the skull with dental cement together with the stimulation electrodes. For the in vivo microdialysis experiments, concentric microdialysis probes with 2-mm long dialysis membranes (Eicom Corp., Tokio, Japan) were implanted respectively into the striatum ipsilateral to the stimulation electrodes (0.0 mm AP, 4.5 ML and 7.0 mm DV).
Rats were placed in individual bowl chambers. Both stimulation electrodes and recording electrodes were attached using flexible shielded cabling to a four channel electrical swivel. Stimulation electrodes were connected to two-coupled constant current isolation units (PSIU6X, Grass Instruments West Warwick, RI) driven by an electrical stimulator (Grass S88X; Grass Instruments). The recording electrodes were connected to a differential amplifier (Grass LP511, West Warwick, RI). This configuration allows the rat to move freely while the stimulation and EMG recordings are taking place. After 60 min of habituation, biphasic current pulse trains (pulse of 0.1 ms at 120–200 µA; 100 Hz, 160 ms trains repeating once per 2 seconds) were delivered. The current intensity was adjusted to the threshold level, defined as the minimal level of current intensity allowing at least 95% of the stimulation pulses to elicit a positive EMG response. Positive EMG response was defined as at least 100% increase of the peak to peak amplitude respect to the background tonic EMG activity lasting more than 100 ms or at least 70% increase in the power of the EMG signal respect to the baseline. Positive EMG responses always matched observable small jaw movements. […]

[3] = system: rats; test: Locomotor activity in habituated rats; assay type: in vivo, rat; conditions: for Locomotor activation: 1 mg/kg i.p.; for Dose producing significant locomotor activation: i.p., 90 min after administration, habituated rats
Method: as §1, §2
Locomotor activity was measured by placing the animals individually in motility soundproof chambers (50×50 centimeters; Med Associates Inc., VT). Locomotion was measured by counting the number of breaks in the infrared beams of the chambers. The animals were placed in individual acrylic chambers at noon on the day of testing. A lamp inside each chamber remained lit during this period. Following 90 min of habituation, the rats were injected i.p. with different doses of each compound or vehicle and locomotor activity was recorded for 90 min after the drug or vehicle administration. All the animals were tested only once. The effect of different doses of the A2AR antagonists on locomotor activity were analyzed using a one-way analysis of variance (ANOVA), followed by Newman-Keuls' post-hoc test.

[4] = target: T1, A2AR (Homo sapiens, UniProt P29274); conditions: A2AR cells; [^3H]ZM-241385 2 nM
T1 sequence (P29274 whole entry): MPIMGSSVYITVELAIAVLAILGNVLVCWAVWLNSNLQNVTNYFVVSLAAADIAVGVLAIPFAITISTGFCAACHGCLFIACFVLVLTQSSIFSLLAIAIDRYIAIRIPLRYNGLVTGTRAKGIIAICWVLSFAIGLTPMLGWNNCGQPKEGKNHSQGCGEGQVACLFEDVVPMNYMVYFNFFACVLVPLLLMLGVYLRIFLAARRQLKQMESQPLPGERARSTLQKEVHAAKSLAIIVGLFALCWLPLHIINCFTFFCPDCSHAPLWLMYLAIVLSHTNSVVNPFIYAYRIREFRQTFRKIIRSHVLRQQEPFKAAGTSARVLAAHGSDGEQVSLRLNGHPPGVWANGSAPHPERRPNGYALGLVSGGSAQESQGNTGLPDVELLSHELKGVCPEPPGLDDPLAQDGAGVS

[5] = target: T2, A2AR in A2AR-D2R heteromers (Homo sapiens, UniProt P29274); test: biochemical
T2 sequence (P29274 whole entry): as above
T2 sequence (P14416 whole entry partner): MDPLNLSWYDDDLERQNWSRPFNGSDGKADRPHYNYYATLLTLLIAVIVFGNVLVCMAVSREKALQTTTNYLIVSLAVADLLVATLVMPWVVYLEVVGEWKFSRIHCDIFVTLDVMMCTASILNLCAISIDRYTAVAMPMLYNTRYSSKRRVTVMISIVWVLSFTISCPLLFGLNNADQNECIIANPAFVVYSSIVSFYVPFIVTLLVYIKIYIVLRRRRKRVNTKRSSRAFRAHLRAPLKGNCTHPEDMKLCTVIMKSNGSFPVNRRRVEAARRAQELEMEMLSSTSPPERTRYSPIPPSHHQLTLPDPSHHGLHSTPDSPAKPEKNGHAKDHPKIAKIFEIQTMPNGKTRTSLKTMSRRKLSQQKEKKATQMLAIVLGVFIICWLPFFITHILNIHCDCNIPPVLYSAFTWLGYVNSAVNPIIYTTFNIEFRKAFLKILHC

[6] = target: T3, A2AR in A1R-A2AR heteromers (Homo sapiens, UniProt P29274); conditions: A2AR-A1R cells, [^3H]ZM-241385 2 nM
T3 sequence (P29274 whole entry): as the sequence (P29274 whole entry) above
T3 sequence (P30542 whole entry partner): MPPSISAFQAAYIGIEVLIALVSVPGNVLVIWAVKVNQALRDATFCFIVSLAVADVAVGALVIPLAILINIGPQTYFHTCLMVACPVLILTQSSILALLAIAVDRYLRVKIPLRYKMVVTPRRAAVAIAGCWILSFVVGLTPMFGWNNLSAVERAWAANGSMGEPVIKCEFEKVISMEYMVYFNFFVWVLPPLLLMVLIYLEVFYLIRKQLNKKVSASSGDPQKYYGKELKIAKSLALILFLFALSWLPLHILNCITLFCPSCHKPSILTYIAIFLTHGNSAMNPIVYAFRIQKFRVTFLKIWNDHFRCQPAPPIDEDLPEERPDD

[7] = target: T2, A2AR in A2AR-D2R heteromers; conditions: for Reduction of the affinity of A2AR by co-transfection with D2R: A2AR-D2R cells versus A2AR cells; for DCB (dimer cooperativity index): A2AR-D2R cells, A2AR, [^3H]ZM-241385 2 nM
[8] = target: T1, A2AR; test: biochemical
[9] = target: T3, A2AR in A1R-A2AR heteromers; test: biochemical
[10] = system: striatal glutamate release induced by cortical electrical stimulation; set-up: method as in PMID 19936569; conditions: intrastriatal perfusion; previous study; ref [5]; cited from earlier work
[11] = target: A1R in A1R-A2AR heteromers (Homo sapiens, UniProt P30542); conditions: A2AR-A1R cells, [^3H]DPCPX 2 nM
A1R in A1R-A2AR heteromers, sequence (P29274 whole entry): as the sequence (P29274 whole entry) above
A1R in A1R-A2AR heteromers, sequence (P30542 whole entry): as the sequence (P30542 whole entry partner) above

Row | SMILES | Effect on striatal glutamate release induced by cortical stimulation [1] | Reduction of PCC ([2]; 1 mg/kg i.p.) | Dose significantly reducing PCC [2] [mg/kg] | Locomotor activation [3] | Dose producing significant locomotor activation [3] | DCB (dimer cooperativity index) [4] | Kd [5] [nM] | DCB (dimer cooperativity index) [6] | Reduction of the affinity of A2AR by co-transfection with D2R [7] | DCB (dimer cooperativity index) [7] | Kd [8] [nM] | Kd [9] [nM] | also measured
1 | CCn1c(=O)c2c(nc(/C=C/c3ccc(OC)c(OC)c3)n2C)n(CC)c1=O [KW-6002, (E)-1,3-diethyl-8-(3,4-dimethoxystyryl)-7-methyl-3,7-dihydro-1H-purine-2,6-dione] | did not modify | did not reduce PCC | > 10 | pronounced locomotor activation | 0.3 mg/kg |  |  |  |  |  |  |  | 
2 | C#CCn1c(=O)c2c(nc(/C=C/c3cccc(OC)c3)n2C)n(CCCO)c1=O [MSX-2, (E)-3-(3-hydroxypropyl)-8-[2-(3-methoxyphenyl)vinyl]-7-methyl-1-prop-2-ynyl-3,7-dihydropurine-2,6-dione] |  |  |  |  |  | 0 | 7 ± 2 | 0 | two to about nine | 0 | 3.2 ± 0.2 | 4.2 ± 0.3 | 
3 | C#CCn1c(=O)c2c(nc(/C=C/c3cccc(OC)c3)n2C)n(CCCOP(=O)(O)O)c1=O.[Na].[Na] [MSX-3, (E)-phosphoric acid mono-(3-{8-[2-(3-methoxyphenyl)vinyl]-7-methyl-2,6-dioxo-1-prop-2-ynyl-1,2,6,7-tetrahydropurin-3-yl}propyl) ester disodium salt] |  |  |  |  |  |  |  |  |  |  |  |  | Reduction of PCC ([2]; dose-response, Fig. 2): very effective reduction of PCC; Effect on striatal glutamate release induced by cortical electrical stimulation [10]: almost completely counteracted
4 | C[C@H](Cc1ccccc1)Nc1ncnc2c1ncn2[C@@H]1O[C@H](CO)[C@@H](O)[C@H]1O [R-PIA] |  |  |  |  |  |  |  |  |  |  |  |  | B50 (concentration providing half saturation) [11]: 30 ± 10 nM
5 | COCCOc1ccc(N2CCN(CCn3ncc4c3nc(N)n3nc(-c5ccco5)nc43)CC2)cc1 [SCH-420814, 2-(2-furanyl)-7-[2-[4-[4-(2-methoxyethoxy)phenyl]-1-piperazinyl]ethyl]-7H-pyrazolo[4,3-e][1], [2], [4]-triazolo[1,5-c]pyrimidin-5-amine] |  |  |  |  |  | 0 | 2.7 ± 0.8 | 0 | two to about nine | 0 | 0.5 ± 0.1 | 1.1 ± 0.1 | 
6 | COc1ccc(CCCn2ncc3c2nc(N)n2nc(-c4ccco4)nc32)cc1 [SCH-442416, 2-(2-Furanyl)-7-[3-(4-methoxyphenyl)propyl]-7H-pyrazolo[4,3-e][1], [2], [4]triazolo[1,5-c]pyrimidin-5-amine] | significantly counteracted | strongly reduced PCC | 0.1 | did not induce locomotor activation | higher than 3 mg/kg |  |  |  |  |  |  |  | 
